Holding throughout (type): cell-based
The subject of assay [1] is Ba/F3 cells expressing del19/T790M (EGFR-DT). Put plainly: Growth inhibition (GI50) of Ba/F3 cells expressing del19/T790M (EGFR-DT), Celltiter glo. Particulars: Mus musculus, BaF3, 72 h. In short, it runs like this:
(§1)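 Steps: plate engineered Ba/F3 cells (100,000 cells/ml); wait 4 h; add compound as a 4-fold, 10-point dilution series made from 2 mM stock, DMSO 0.5%; incubate 72 h at 37 °C under 5% CO2; measure ATP-based viability with CellTiter-Glo; calculate GI50.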

Assay [2] concerns Ba/F3 cells expressing L858R/T790M/C797S (EGFR-LTC). Put plainly: Growth inhibition (GI50) of Ba/F3 cells expressing L858R/T790M/C797S (EGFR-LTC), Celltiter glo. The conditions noted are these: Mus musculus, BaF3, 72 h. The method, boiled down: as §1
(In ATP-based viability assays light output follows the ATP content of the culture.)

In assay [3] the test system is Ba/F3 cells expressing EGFR-wt. Put plainly: Growth inhibition (GI50) of Ba/F3 cells expressing EGFR-wt, Celltiter glo. The conditions noted are these: Mus musculus, BaF3, 72 h. The method, boiled down: as §1
A further assay concerns parental Ba/F3 cell line. Put plainly: Growth inhibition (GI50) of the parental Ba/F3 cell line (not introduced with EGFR variants), Celltiter glo. The conditions noted are these: Mus musculus, BaF3, 72 h, parental Ba/F3 cells. The method, boiled down:
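Parental Ba/F3 cells (100,000 cells/ml) were treated with 10-point, 4-fold compound dilutions (0.5% DMSO; top stock 2 mM) for 72 h at 37 °C, 5% CO2. Viability was read by CellTiter-Glo; GI50 is the concentration (μM) giving 50% growth inhibition.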

In assay [4] the test system is Ba/F3 cells expressing del19/T790M/C797S (EGFR-DTC). Put plainly: Growth inhibition (GI50) of Ba/F3 cells expressing del19/T790M/C797S (EGFR-DTC), Celltiter glo. Particulars: Mus musculus, BaF3, 72 h. The method, boiled down:
as §1

The subject of assay [5] is Ba/F3 cells expressing L858R/T790M (EGFR-LT). Put plainly: Growth inhibition (GI50) of Ba/F3 cells expressing L858R/T790M (EGFR-LT), Celltiter glo. The conditions noted are these: Mus musculus, BaF3, 72 h. The method, boiled down:
as §1

Usually GI50 stands for the concentration that inhibits growth by half. `Cc1cc(Nc2ncc(Cl)c(Nc3cc(Cl)ccc3N(C)S(C)(=O)=O)n2)c(Cl)cc1N1CCC(N2CCC(N(C)C)C2)CC1` (stereo not drawn) [Example 179, N-(4-chloro-2-((5-chloro-2-((2-chloro-4-(4-(3-(dimethylamino)pyrrolidin-1-yl)piperidin-1-yl)-5-methylphenyl)amino)pyrimidin-4-yl)amino)phenyl)-N-methylmethanesulfonamide]: the GI50 in assay [1] was 0.1 to 0.5 µM; in assay [2] it was 0.025 to 0.1 µM; in assay [3] it was 0.1 to 0.5 µM; with parental Ba/F3 cell line it was 0.5 to 2 µM; in assay [4], 0.1 to 0.5 µM; in assay [5], 0.025 to 0.1 µM.

Regarding `Cc1cc(Nc2ncc(Cl)c(Nc3cc(Cl)ccc3N(C)S(C)(=O)=O)n2)c(Cl)cc1N1CCC(N2CCCN(C)CC2)CC1` [Example 180, N-(4-chloro-2-((5-chloro-2-((2-chloro-5-methyl-4-(4-(4-methyl-1,4-diazepan-1-yl)piperidin-1-yl)phenyl)amino)pyrimidin-4-yl)amino)phenyl)-N-methylmethanesulfonamide], the GI50 in assay [1] was 0.025 to 0.1 µM; in assay [2], 0.025 to 0.1 µM; in assay [3] it was 0.5 to 2 µM; in the assay on parental Ba/F3 cell line, 2 to 10 µM; in assay [4], 0.025 to 0.1 µM; in assay [5], 0.025 to 0.1 µM.

Take `COc1cc(N2CCC(N3CCN(C)CC3)CC2)c(Cl)cc1Nc1ncc(Cl)c(Nc2cc(Cl)c(F)cc2NS(C)(=O)=O)n1` [Example 181, N-(4-chloro-2-((5-chloro-2-((5-chloro-2-methoxy-4-(4-(4-methylpiperazin-1-yl)piperidin-1-yl)phenyl)amino)pyrimidin-4-yl)amino)-5-fluorophenyl)methanesulfonamide]: the GI50 in assay [1] lay in the range of 0.025 to 0.1 µM; in assay [2] it was 0.025 to 0.1 µM; in assay [3], 0.5 to 2 µM; with parental Ba/F3 cell line it was 2 to 10 µM; in assay [4] it was 0.1 to 0.5 µM; in assay [5], 0.025 to 0.1 µM.

Turning to `Cc1cc(Nc2ncc(Cl)c(Nc3cc(Cl)c(F)cc3NS(C)(=O)=O)n2)c(Cl)cc1N1CCC(N2CCN(C)CC2)CC1` [Example 182, N-(4-chloro-2-((5-chloro-2-((2-chloro-5-methyl-4-(4-(4-methylpiperazin-1-yl)piperidin-1-yl)phenyl)amino)pyrimidin-4-yl)amino)-5-fluorophenyl)methanesulfonamide], the GI50 in assay [1] was 0.025 to 0.1 µM; in assay [2] it was 0.025 to 0.1 µM; in assay [3], 2 to 10 µM; with parental Ba/F3 cell line it was over 10 µM; in assay [4], 0.025 to 0.1 µM; in assay [5] it was 0.025 to 0.1 µM.

On to `COc1cc(N2CCC(N3CCN(C)CC3)CC2)c(Cl)cc1Nc1ncc(Br)c(Nc2cc3c(cc2NS(C)(=O)=O)CCO3)n1` [Example 183, N-(6-((5-bromo-2-((5-chloro-2-methoxy-4-(4-(4-methylpiperazin-1-yl)piperidin-1-yl)phenyl)amino)pyrimidin-4-yl)amino)-2,3-dihydrobenzofuran-5-yl)methanesulfonamide], for which the GI50 in assay [1] was 0.001 to 0.025 µM; in assay [2], 0.001 to 0.025 µM; in assay [3], 0.001 to 0.025 µM; in the assay with parental Ba/F3 cell line, 0.025 to 0.1 µM; in assay [4] it was 0.001 to 0.025 µM; in assay [5], 0.001 to 0.025 µM.

As to `CCc1cc(Nc2ncc(Br)c(Nc3cc4c(cc3NS(C)(=O)=O)CCO4)n2)c(OC)cc1N1CCC(N2CCN(C)CC2)CC1` [Example 184, N-(6-((5-bromo-2-((5-ethyl-2-methoxy-4-(4-(4-methylpiperazin-1-yl)piperidin-1-yl)phenyl)amino)pyrimidin-4-yl)amino)-2,3-dihydrobenzofuran-5-yl)methanesulfonamide], the GI50 in assay [1] fell in the range of 0.001 to 0.025 µM; in assay [2], 0.001 to 0.025 µM; in assay [3], 0.025 to 0.1 µM; in the assay on parental Ba/F3 cell line, 0.5 to 2 µM; in assay [4] it was 0.1 to 0.5 µM; in assay [5] it was 0.001 to 0.025 µM.

Turning to `COc1cc(N2CCC(N3CCCN(C)CC3)CC2)c(C)cc1Nc1ncc(Br)c(Nc2cc3c(cc2NS(C)(=O)=O)CCO3)n1` [Example 188, N-(6-((5-bromo-2-((2-methoxy-5-methyl-4-(4-(4-methyl-1,4-diazepan-1-yl)piperidin-1-yl)phenyl)amino)pyrimidin-4-yl)amino)-2,3-dihydrobenzofuran-5-yl)methanesulfonamide], the GI50 lay within 0.025 to 0.1 µM in assay [1]; 0.001 to 0.025 µM in assay [2]; 0.1 to 0.5 µM in assay [3]; 0.5 to 2 µM in the assay with parental Ba/F3 cell line; 0.001 to 0.025 µM in assay [4]; 0.025 to 0.1 µM in assay [5].

Consider `COc1cc(N2CCC(N3CCCN(C)CC3)CC2)c(Cl)cc1Nc1ncc(Br)c(Nc2cc3c(cc2NS(C)(=O)=O)CCO3)n1` [Example 189, N-(6-((5-bromo-2-((5-chloro-2-methoxy-4-(4-(4-methyl-1,4-diazepan-1-yl)piperidin-1-yl)phenyl)amino)pyrimidin-4-yl)amino)-2,3-dihydrobenzofuran-5-yl)methanesulfonamide], for which the GI50 was 0.001 to 0.025 µM in assay [1]; 0.001 to 0.025 µM in assay [2]; 0.025 to 0.1 µM in assay [3]; 0.5 to 2 µM with parental Ba/F3 cell line; 0.001 to 0.025 µM in assay [4]; 0.025 to 0.1 µM in assay [5].

In the case of `CCc1cc(Nc2ncc(Cl)c(Nc3ccc4nccnc4c3P(C)(C)=O)n2)c(OC)cc1N1CCC(N2CCN(C)CC2)CC1` [Example 190, (6-((5-chloro-2-((5-ethyl-2-methoxy-4-(4-(4-methylpiperazin-1-yl)piperidin-1-yl)phenyl)amino)pyrimidin-4-yl)amino)quinoxalin-5-yl)dimethylphosphine oxide], the GI50 in assay [1] was 0.001 to 0.025 µM; in assay [2], 0.025 to 0.1 µM; in assay [3], 0.1 to 0.5 µM; with parental Ba/F3 cell line it was 0.1 to 0.5 µM; in assay [4] it was 0.025 to 0.1 µM; in assay [5], 0.001 to 0.025 µM.

As for `CCc1cc(Nc2ncc(Br)c(Nc3cc(Cl)ccc3NS(C)(=O)=O)n2)c(OC)cc1N1CCC(N2CCN(C)CC2)CC1` [Example 191, N-(2-((5-bromo-2-((5-ethyl-2-methoxy-4-(4-(4-methylpiperazin-1-yl)piperidin-1-yl)phenyl)amino)pyrimidin-4-yl)amino)-4-chlorophenyl)methanesulfonamide], the GI50 was in the range of 0.001 to 0.025 µM in assay [1]; 0.001 to 0.025 µM in assay [2]; 0.1 to 0.5 µM in assay [3]; 2 to 10 µM with parental Ba/F3 cell line; 0.001 to 0.025 µM in assay [4]; 0.001 to 0.025 µM in assay [5].

For `CCc1cc(Nc2ncc(Br)c(Nc3ccc4nccnc4c3P(C)(C)=O)n2)c(OC)cc1N1CCC(N2CCN(C)CC2)CC1` [Example 192, (6-((5-bromo-2-((5-ethyl-2-methoxy-4-(4-(4-methylpiperazin-1-yl)piperidin-1-yl)phenyl)amino)pyrimidin-4-yl)amino)quinoxalin-5-yl)dimethylphosphine oxide], the GI50 in assay [1] was 0.001 to 0.025 µM; in assay [2], 0.001 to 0.025 µM; in assay [3], 0.025 to 0.1 µM; with parental Ba/F3 cell line, 0.1 to 0.5 µM; in assay [4] it was 0.001 to 0.025 µM; in assay [5] it was 0.001 to 0.025 µM.

In the case of `Cc1cc(Nc2ncc(Br)c(Nc3ccc4nccnc4c3P(C)(C)=O)n2)c(Cl)cc1N1CCC(N2CCN(C)CC2)CC1` [Example 193, (6-((5-bromo-2-((2-chloro-5-methyl-4-(4-(4-methylpiperazin-1-yl)piperidin-1-yl)phenyl)amino)pyrimidin-4-yl)amino)quinoxalin-5-yl)dimethylphosphine oxide], the GI50 fell in the range of 0.1 to 0.5 µM in assay [1]; 0.025 to 0.1 µM in assay [2]; 0.1 to 0.5 µM in assay [3]; 0.5 to 2 µM with parental Ba/F3 cell line; 0.001 to 0.025 µM in assay [4]; 0.1 to 0.5 µM in assay [5].

With `COc1cc(N2CCC(N3CCN(C)CC3)CC2)c(Cl)cc1Nc1ncc(Br)c(Nc2ccc3nccnc3c2P(C)(C)=O)n1` [Example 194, (6-((5-bromo-2-((5-chloro-2-methoxy-4-(4-(4-methylpiperazin-1-yl)piperidin-1-yl)phenyl)amino)pyrimidin-4-yl)amino)quinoxalin-5-yl)dimethylphosphine oxide], the GI50 in assay [1] was 0.025 to 0.1 µM; in assay [2], 0.025 to 0.1 µM; in assay [3] it was 0.1 to 0.5 µM; in the assay on parental Ba/F3 cell line it was 0.1 to 0.5 µM; in assay [4] it was 0.025 to 0.1 µM; in assay [5], 0.1 to 0.5 µM.

As to `COc1cc(N2CCC(N3CCCC(N(C)C)C3)CC2)c(C)cc1Nc1ncc(Br)c(Nc2cc3c(cc2NS(C)(=O)=O)CCO3)n1` (stereo not drawn) [Example 196, N-(6-((5-bromo-2-((4-(3-(dimethylamino)-[1,4′-bipiperidin]-1′-yl)-2-methoxy-5-methylphenyl)amino)pyrimidin-4-yl)amino)-2,3-dihydrobenzofuran-5-yl)methanesulfonamide], the GI50 fell in the range of 0.001 to 0.025 µM in assay [1]; 0.1 to 0.5 µM in assay [2]; 0.5 to 2 µM in assay [3]; 2 to 10 µM in the assay on parental Ba/F3 cell line; 0.001 to 0.025 µM in assay [4]; 0.025 to 0.1 µM in assay [5].

Regarding `Cc1cc(Nc2ncc(Cl)c(Nc3cc4c(cc3NS(C)(=O)=O)CCO4)n2)c(Cl)cc1N1CCC(N2CCCC(N(C)C)C2)CC1` (stereo not drawn) [Example 197, N-(6-((5-chloro-2-((2-chloro-4-(3-(dimethylamino)-[1,4′-bipiperidin]-1′-yl)-5-methylphenyl)amino)pyrimidin-4-yl)amino)-2,3-dihydrobenzofuran-5-yl)methanesulfonamide], the GI50 in assay [1] lay in the range of 0.001 to 0.025 µM; in assay [2] it was 0.1 to 0.5 µM; in assay [3], 0.1 to 0.5 µM; with parental Ba/F3 cell line, 2 to 10 µM; in assay [4] it was 0.025 to 0.1 µM; in assay [5], 0.1 to 0.5 µM.

These data come from patent US20240228458A1, “PYRIMIDINE DERIVATIVE HAVING PROTEIN KINASE INHIBITORY ACTIVITY, AND THERAPEUTIC PHARMACEUTICAL COMPOSITION COMPRISING SAME” (THERAPEX CO., LTD., priority 2021, published 2024).
